# Read-outs that look alike come from different tables or passages of the source.
# What was measured:
# [1] = set-up: method as in earlier work; details: Water, 25°C, ref [1]; cited from earlier work
# [2] = set-up: method as in earlier work; details: 25°C, ref [1], cited from earlier work
# [3] = Tensiometry (Du Noüy ring): surface tension breakpoints, surface properties, critical packing parameters; assay type: physicochemical; details: 25°C
# Method: The force tensiometer is equipped with a platinum Du Noüy ring to surface tension measurement and a thermostatic vessel connected to a bath circulator (RW-0535G, Lab. Companion, Daejeon, Republic of Korea) in order to keep the temperature of the solution constant. Next, 15 mL of each sample was placed in a glass container and left to equilibrate in the thermostatic vessel. After temperature equilibration, the surface tension was measured. The equipment is a standalone-controlled instrument, and the calibration was conducted with a calibration weight with a known mass before measuring the samples. Each sample was measured five times, and the reported surface tension was the average value with an uncertainty of ±0.22 mN/m. Each solution was then assessed by a KSV’s contact angle goniometer CAM100 (Biolin Scientific, Gothenburg, Sweden). A drop of each solution was placed on a Teflon surface with a Hamilton syringe. This equipment is a PC-controlled instrument, and the tilt was set to 0 degrees at the base of the drop and was recorded for 10 frames with an interval of 1 s. The contact angle was calculated for the left and right sides of the drop and the mean value was the resulting contact angle. At least five different drops of each solution were recorded, and the reported contact angle was the resulting average with an uncertainty of ±5%.
# After the evaluation of the CACs, other properties can be taken from the surface tension data. […] The n parameter is deduced from the degree of ionization of aggregates, α, as n = 2 − α, determined from the conductivity profile of the FIL and assumed to be the same for the surface layer in ionic surfactants.
# From the Γmax and Avogadro’s number (NA) the minimum area occupied per surfactant molecule at the air/water interface, Amim, can be obtained as set by:(4) Amin=10^18/NAΓmax
# In addition, the parameter that explains the efficacy of a surfactant to reduce the surface tension, ΠCAC, was determined, expressing the maximum surface tension diminution resulting from the dissolution of surfactant molecules. This parameter is determined by the surface tension of the solvent ( γ0 ) and the γCAC , as follows:(5) ΠCAC=γ0−γCAC
# Them, from ΠCAC, the standard free energy of adsorption, ΔGad0 , was calculated using the following equation [55]:(6) ΔGad0=ΔGagg0−ΠCAC/Γmax
# Finally, aiming to disclose information on the self-aggregation process and the shape of the aggregates, the critical packing parameter, P, was also calculated in this work, as follows:(7) P=V0/Aminlc where V0 and lc are the volume occupied by the hydrophobic chains in the aggregate core and the critical chain length, respectively. The structure of the aggregates is defined as spherical when P ≤ 0.33, cylindrical for P ≤ 0.5, lamellar when P ≤ 1, and inverted for P > 1 [38].
# [4] = 5 μg/mL IFN-α 2b + 5 mM NaH2PO4 (pH=7.4), 1st breakpoint
# [5] = 5 μg/mL IFN-α 2b + 5 mM NaH2PO4 (pH=7.4), 2nd breakpoint
# [6] = 5 μg/mL IFN-α 2b + 5 mM NaH2PO4 (pH=7.4), 3rd breakpoint
# [7] = 5 μg/mL IFN-α 2b + 5 mM NaH2PO4 (pH=7.4), 4th breakpoint
compound,measurement,setting,value
"CCn1cc[n+](C)c1.O=S(=O)([O-])C(F)(F)C(F)(F)C(F)(F)C(F)(F)F [[C2C1Im][C4F9SO3], 1-Ethyl-3-methylimidazolium perfluorobutanesulfonate]",First CAC,[1],14.55 mmol/kg
same,First CAC (wFIL),[1],0.0060
same,"Gibbs free energy of aggregation ΔG0agg, First CAC",[1],-24.7 kJ/mol
same,"Gibbs free energy of aggregation ΔG0agg, Second CAC",[1],-20.8 kJ/mol
same,"Gibbs free energy of aggregation ΔG0agg, Third CAC",[1],-27.5 kJ/mol
same,Second CAC,[1],38.54 mmol/kg
same,Second CAC (wFIL),[1],0.0158
same,Third CAC,[1],81.03 mmol/kg
same,Third CAC (wFIL),[1],0.0332
same,"ionization degree α, First CAC",[1],0.79
same,"ionization degree α, Second CAC",[1],0.84
same,"ionization degree α, Third CAC",[1],0.29
same,"Amin, minimum area per surfactant molecule at the air/water interface",[2],0.64 nm2
same,"10^6 Γmax, maximum surface excess concentration",[2]; Water,2.60 mol m-2
same,"CAC (wFIL), tensiometer",[2]; Water,0.0375
same,"CAC, tensiometer",[2]; Water,91.39 mmol⸱kg-1
same,critical packing parameter Peq 8,[2]; Water,0.439
same,critical packing parameter Peq 9,[2]; Water,0.442
same,"surface tension at CAC, γCAC",[2]; Water,24.5 mN m-1
same,"ΔG0ad, standard free energy of adsorption",[2]; Water,-44.5 kJ/mol
same,"ΠCAC, efficacy to reduce the surface tension",[2]; Water,44.4 mN m-1
same,"CAC (wFIL), tensiometer",[3]; [4],0.0008
same,"CAC, tensiometer",[3]; [4],1.963 mmol⸱kg-1
same,"surface tension at CAC, γCAC",[3]; [4],51.4 mN m-1
same,"CAC (wFIL), tensiometer",[3]; [5],0.0025
same,"CAC, tensiometer",[3]; [5],6.105 mmol⸱kg-1
same,"surface tension at CAC, γCAC",[3]; [5],48.2 mN m-1
same,"CAC (wFIL), tensiometer",[3]; [6],0.0089
same,"CAC, tensiometer",[3]; [6],21.61 mmol⸱kg-1
same,"surface tension at CAC, γCAC",[3]; [6],38.3 mN m-1
same,"10^6 Γmax, maximum surface excess concentration",[3]; [7],4.41 mol m-2
same,"Amin, minimum area per surfactant molecule at the air/water interface",[3]; [7],0.38 nm2
same,"CAC (wFIL), tensiometer",[3]; [7],0.0335
same,"CAC, tensiometer",[3]; [7],81.59 mmol⸱kg-1
same,critical packing parameter Peq 8,[3]; [7],0.7439
same,critical packing parameter Peq 9,[3]; [7],0.7481
same,"surface tension at CAC, γCAC",[3]; [7],24.3 mN m-1
same,"ΔG0ad, standard free energy of adsorption",[3]; [7],-32.36 kJ/mol
same,"ΠCAC, efficacy to reduce the surface tension",[3]; [7],37.8 mN m-1
same,"10^6 Γmax, maximum surface excess concentration",[3]; 5 mM NaH2PO4 (pH=7.4),3.26 mol m-2
same,"Amin, minimum area per surfactant molecule at the air/water interface",[3]; 5 mM NaH2PO4 (pH=7.4),0.51 nm2
same,"CAC (wFIL), tensiometer",[3]; 5 mM NaH2PO4 (pH=7.4),0.0330
same,"CAC, tensiometer",[3]; 5 mM NaH2PO4 (pH=7.4),80.35 mmol⸱kg-1
same,critical packing parameter Peq 8,[3]; 5 mM NaH2PO4 (pH=7.4),0.550
same,critical packing parameter Peq 9,[3]; 5 mM NaH2PO4 (pH=7.4),0.553
same,"surface tension at CAC, γCAC",[3]; 5 mM NaH2PO4 (pH=7.4),24.6 mN m-1
same,"ΔG0ad, standard free energy of adsorption",[3]; 5 mM NaH2PO4 (pH=7.4),-41.0 kJ/mol
same,"ΠCAC, efficacy to reduce the surface tension",[3]; 5 mM NaH2PO4 (pH=7.4),46.4 mN m-1
